Our source for the IC50 values is ChEMBL document CHEMBL1127005, “Design of novel agents for the therapy of non-insulin dependent diabetes mellitus (NIDDM)” (Bioorg Med Chem Lett, 1993).

Each structure is given as a SMILES string.

For orientation: IC50 means the concentration needed to halve the response being measured. High values mean a need for much substance, low ones inhibition by little substance.

The species entered for the first experiment is Rattus norvegicus. In words: Inhibition against gluconeogenesis was expressed as effect of compound on rat hepatocyte glucose production from 10 mM lactate/1 mM pyruvate/0.5 mM oleate. Type of experiment: functional. The following applies: Rattus norvegicus, Hepatocyte.
With `C=C1[C@H](CCCC)[C@H]1CC(=O)O`, the IC50 turned out to be 30 µM. On the same count and under the same terms, with `C=C1[C@@H](CC(=O)O)[C@H]1CCCC` the figure was 15 µM; with `C=C1[C@@H](CC(=O)O)[C@H]1CCCCCCCC`, 5 µM; with `C=C1[C@@H](CC(N)=O)[C@H]1CCCC`, 4 µM. As for `C=C1[C@@H](CCCCCCCCCCCC)[C@@H]1CC(=O)O`, the midpoint of inhibition, the IC50, lay at 160 µM. Compared with the last molecule, the IC50 is about 40-fold higher.

Consider `C=C1C[C@@H]1CC(=O)O`, for which the midpoint of inhibition, the IC50, lay at 60 µM.

Molecule `C=C1[C@@H](CC(N)=O)[C@H]1CCCCCCCCCCCC` returned an IC50 of 32 µM. Same read-out and setting: with `C=C1[C@@H](CC(N)=O)[C@H]1CCCCCCCC` the figure was 8 µM. On the same count and under the same terms, the same measure for `C=C1C[C@@H]1CC(N)=O`: 30 µM; for `C=C1[C@H](CCCC)[C@H]1CC(N)=O`: 60 µM. Still for that read-out and setting: with `C=C1[C@@H](CC(=O)O)[C@H]1CCCCCCCCCCCC` the figure was 25 µM.

Still in this experiment, the particulars now being: hepatocyte.
Take `C=C1[C@H](CCCCCCCCCCCC)[C@H]1CC(=O)O` (stereo in doubt; 4d): the IC50 stood at 200 µM. On the same count and under the same terms, the same measure for `C=C1[C@H](CCCCCCCCCCCC)[C@H]1CC(=O)O` (stereo in doubt): 13 µM.
